The target of test [1] is T1, His-Tagged hOGA (human O-GlcNAcase) (Homo sapiens, UniProt O60502).
T1 sequence (O60502 1-916): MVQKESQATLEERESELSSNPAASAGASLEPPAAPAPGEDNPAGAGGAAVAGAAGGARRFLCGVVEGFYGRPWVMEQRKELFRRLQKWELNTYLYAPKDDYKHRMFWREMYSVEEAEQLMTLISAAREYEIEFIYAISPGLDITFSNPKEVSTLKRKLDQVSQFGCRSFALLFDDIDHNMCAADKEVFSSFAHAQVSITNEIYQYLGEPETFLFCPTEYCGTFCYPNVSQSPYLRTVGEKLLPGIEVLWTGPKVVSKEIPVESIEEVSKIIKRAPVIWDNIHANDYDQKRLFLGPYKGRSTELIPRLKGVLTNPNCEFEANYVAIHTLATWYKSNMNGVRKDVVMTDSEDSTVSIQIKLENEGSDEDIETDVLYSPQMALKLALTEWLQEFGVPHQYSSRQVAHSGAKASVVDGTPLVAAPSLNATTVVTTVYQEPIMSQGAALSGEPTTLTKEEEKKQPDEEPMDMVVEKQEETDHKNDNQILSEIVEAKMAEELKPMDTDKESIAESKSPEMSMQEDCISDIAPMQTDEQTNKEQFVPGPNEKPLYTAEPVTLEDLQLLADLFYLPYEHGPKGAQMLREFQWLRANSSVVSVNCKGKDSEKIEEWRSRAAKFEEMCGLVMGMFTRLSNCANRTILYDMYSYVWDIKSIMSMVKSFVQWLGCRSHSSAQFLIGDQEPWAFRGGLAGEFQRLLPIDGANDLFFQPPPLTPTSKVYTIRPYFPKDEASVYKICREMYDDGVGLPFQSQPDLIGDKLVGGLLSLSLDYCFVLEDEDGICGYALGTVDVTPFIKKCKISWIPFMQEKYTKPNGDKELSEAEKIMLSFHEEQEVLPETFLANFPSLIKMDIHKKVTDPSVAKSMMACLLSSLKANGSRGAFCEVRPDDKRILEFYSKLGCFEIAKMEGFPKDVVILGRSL
The experiment in a line: biochemical. The protocol: Human O-GlcNAcase Enzyme Inhibition Assay
The following reaction components were added to a final volume of 10 μL in McIlvaine's Buffer (pH 6.5):
20 nM His-Tagged hOGA and 10 μM Fluoroscein mono-beta-D-(2-deoxy-2-N-acetyl) glucopyranoside (FL-GlcNAc; Marker Gene Technologies Inc, Part #M1485). […] The amount of fluorescence measured was plotted against the concentration of inhibitor to produce a sigmoidal dose response curve, from which an IC50 was calculated.

Test [2] addresses T2, O-GlcNAcase (UniProt Q8VIJ5).
T2 sequence (Q8VIJ5 1-916): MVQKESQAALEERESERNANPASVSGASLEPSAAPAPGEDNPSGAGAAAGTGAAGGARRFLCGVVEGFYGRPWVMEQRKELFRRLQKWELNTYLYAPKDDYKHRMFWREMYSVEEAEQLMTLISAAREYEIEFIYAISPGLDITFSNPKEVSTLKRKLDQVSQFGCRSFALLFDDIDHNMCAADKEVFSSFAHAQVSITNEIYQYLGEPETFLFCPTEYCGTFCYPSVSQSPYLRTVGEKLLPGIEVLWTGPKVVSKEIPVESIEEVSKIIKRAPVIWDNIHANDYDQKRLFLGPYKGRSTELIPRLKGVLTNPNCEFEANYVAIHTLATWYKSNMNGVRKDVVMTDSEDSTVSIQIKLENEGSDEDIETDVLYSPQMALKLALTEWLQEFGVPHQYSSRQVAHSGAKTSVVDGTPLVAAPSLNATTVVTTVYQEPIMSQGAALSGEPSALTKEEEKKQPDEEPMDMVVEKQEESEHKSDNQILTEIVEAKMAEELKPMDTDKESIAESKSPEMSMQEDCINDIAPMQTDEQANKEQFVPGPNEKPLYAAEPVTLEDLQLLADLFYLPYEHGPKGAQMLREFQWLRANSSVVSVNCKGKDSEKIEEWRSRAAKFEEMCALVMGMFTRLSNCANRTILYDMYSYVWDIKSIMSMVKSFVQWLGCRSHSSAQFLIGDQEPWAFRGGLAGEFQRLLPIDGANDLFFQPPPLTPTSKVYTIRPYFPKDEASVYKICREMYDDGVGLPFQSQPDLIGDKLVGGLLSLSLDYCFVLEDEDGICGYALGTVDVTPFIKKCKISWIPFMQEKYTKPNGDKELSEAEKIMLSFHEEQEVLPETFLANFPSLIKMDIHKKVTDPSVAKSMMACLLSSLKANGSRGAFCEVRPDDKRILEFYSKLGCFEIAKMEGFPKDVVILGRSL
The test is classed as cell-based. The source says: Assay for the Determination of Cellular Activity for Compounds that Inhibit O-GlcNAcase Activity
Inhibition of O-GlcNAcase, which removes O-GlcNAc from cellular proteins, results in an increase in the level of O-GlcNAcylated proteins in cells. An increase in the O-GlcNAcylation of cellular proteins can be measured by an antibody, such as CTD110.6, that binds O-GlcNAcylated proteins. The amount of O-GlcNAcylated protein can be determined by the enzyme linked immunoabsorbant assay (ELISA) technique.
Cell lines, such as rat B35, rat PC-12 and human SH-SY5Y cells, expressing endogenous levels of O-GlcNAcase, could be utilized. Cells were plated in 96-well plates at a density of approximately 10,000 cells/well. Compounds to be tested were dissolved in DMSO as 10 mM stock solution, and then diluted first with DMSO and then culture media using the Bravo workstation. Cells were treated with diluted compounds for approximately 16 hours. […] To prepare a cell lysate, the media from compound treated cells were removed, and the cells were washed once with Dulbecco's phosphate buffered saline (DPBS) and then lysed for 30 minutes in 100 μl/well of ice cold RIPA buffer containing a protease inhibitor cocktail.
The ELISA portion of the assay was performed in EIA/RIA plates that were coated overnight at 4 C with 80 μl/well of cell lysate. The following day the wells were washed 6 times with 200 μl of wash buffer (0.05% Tween20 in DPBS). The wells were blocked with 200 μl blocking buffer (1% BSA, 0.05% Tween20 in DPBS) for 1 h at room temperature. Each well was then washed 6 times with 200 μl of wash buffer. The anti-O-GlcNAc antibody CTD110.6 (Covance, Princeton, N.J.) was added at 100 μl/well at a concentration of 10 μg/ml. The plates were incubated for 1 h at room temperature. The wells were then washed 6 times with 200 μl/well of wash buffer. To detect the amount of CTD110.6 bound to the cell lysate, alkaline phosphatase conjugated goat anti-mouse IgM (diluted 1:500 in blocking buffer) was added at 100 μl/well and incubated for 45 min at room temperature. Each well was then washed 6 times with 200 μl/well of wash buffer. PNPP tablets dissolved in diethanolamine substrate buffer and 100 μl/well were added as detection reagent.
The amount of O-GlcNAcylated protein, as detected by the ELISA assay, was plotted for each concentration of test compound using standard curve fitting algorithms for sigmoidal dose response curves. The values for a four parameter logistic curve fit of the data were determined, with the inflection point of the curve being the potency value for the test compound.

Where [3] appears, read: read-out: OGA enzyme inhibition (IC50).
Setting [4] is: cells expressing endogenous O-GlcNAcase (such as rat B35, rat PC-12, human SH-SY5Y), approximately 16 hours treatment; read-out: OGA cellular inhibition (EC50).

Read-outs that look alike come from different tables or passages of the source. Bounds are passed on as bounds.

`CCNC1=N[C@@H]2[C@@H](O)[C@H](O)[C@@H](C(O)CCc3ccccc3)O[C@@H]2S1` (single isomer, unassigned) [compound no. 53]: the IC50 in test [1] (setting [3]) is 100 to 500 nM. Also, in test [2] (setting [4]), the EC50 was in the range of 100 to 500 nM.

The molecule `CCNC1=N[C@@H]2[C@@H](O)[C@H](O)[C@@H](COC(c3ccccc3)(c3ccccc3)c3ccccc3)O[C@@H]2S1` [compound 43] showed an IC50 in test [1] of 500 to 1000 nM. For the same molecule, the EC50 in test [2] (setting [4]) is greater than 1000 nM.

As to `CCNC1=N[C@@H]2[C@@H](O)[C@H](O)[C@@H](Cn3cc(Cn4cccc4)nn3)O[C@@H]2S1` [compound 66], the IC50 in test [1] (setting [3]) is less than 100 nM. Further, the EC50 in test [2] (setting [4]) is greater than 1000 nM.

For the molecule `CCNC1=N[C@@H]2[C@@H](O)[C@H](O)[C@@H](Cn3cc(C(O)c4ccccc4)nn3)O[C@@H]2S1` (stereo partly shown) [compound 68], the IC50 in test [1] is less than 100 nM. The EC50 in test [2] (setting [4]) was greater than 1000 nM.

For `CCNC1=N[C@@H]2[C@@H](O)[C@H](O)[C@@H](Cn3cc(Cn4c5ccccc5c5ccccc54)nn3)O[C@@H]2S1` [compound 69], the IC50 in test [1] (setting [3]) was 100 to 500 nM. In test [2] (setting [4]), the EC50 was in the range of 100 to 500 nM.

Consider `CCNC1=N[C@@H]2[C@@H](O)[C@H](O)[C@@H](Cn3cc(C(O)(c4ccccc4)C(F)(F)F)nn3)O[C@@H]2S1` (stereo partly shown) [compound 70], for which the IC50 in test [1] was less than 100 nM. The EC50 in test [2] (setting [4]) was greater than 1000 nM.

Turning to `CCNC1=N[C@@H]2[C@@H](O)[C@H](O)[C@@H](Cn3cc(CN(C)c4ccccc4)nn3)O[C@@H]2S1` [compound 71], the IC50 in test [1] was in the range of 100 to 500 nM. Besides, the EC50 in test [2] (setting [4]) is greater than 1000 nM.

Regarding `CCNC1=N[C@@H]2[C@@H](O)[C@H](O)[C@@H](Cn3cc(COc4cccc(Br)c4)nn3)O[C@@H]2S1` [compound 72], the IC50 in test [1] (setting [3]) is less than 100 nM. In addition, the EC50 in test [2] (setting [4]) was in the range of 100 to 500 nM.

Regarding `CCNC1=N[C@@H]2[C@@H](O)[C@H](O)[C@@H](Cn3cc(COc4cccc(C#N)c4)nn3)O[C@@H]2S1` [compound 73], the IC50 in test [1] was less than 100 nM. In addition, in test [2] (setting [4]), the EC50 is 500 to 1000 nM.

Consider `CCNC1=N[C@@H]2[C@@H](O)[C@H](O)[C@@H](Cn3cc(COc4cccc(O)c4)nn3)O[C@@H]2S1` [compound 74], for which the IC50 in test [1] (setting [3]) is less than 100 nM. For the same molecule, the EC50 in test [2] (setting [4]) was greater than 1000 nM.

Molecule `CCNC1=N[C@@H]2[C@@H](O)[C@H](O)[C@@H](Cn3cc(COc4cccc(CO)c4)nn3)O[C@@H]2S1` [compound 75] gave an IC50 in test [1] of less than 100 nM. In addition, the EC50 in test [2] (setting [4]) is greater than 1000 nM.

On to `CCNC1=N[C@@H]2[C@@H](O)[C@H](O)[C@@H](Cn3cc(COc4cccc(C(C)O)c4)nn3)O[C@@H]2S1` (stereo partly shown) [compound 76], for which the IC50 in test [1] is less than 100 nM. Also, the EC50 in test [2] (setting [4]) was greater than 1000 nM.

As for `CCNC1=N[C@@H]2[C@@H](O)[C@H](O)[C@@H](CN=[N+]=[N-])O[C@@H]2S1` [compound no. 1, (3aR,5R,6S,7R,7aR)-5-(azidomethyl)-2-(ethylamino)-5,6,7,7a-tetrahydro-3aH-pyrano[3,2-d][1,3]thiazole-6,7-diol], in test [2] (read-out: OGA cellular inhibition (EC50); cells expressing endogenous O-GlcNAcase (such as rat B35, rat PC-12, human SH-SY5Y), approximately 16 hours treatment), the EC50 was 100 to 500 nM.

`CCNC1=N[C@@H]2[C@@H](O)[C@H](O)[C@@H]([C@@H](O)CCCc3ccccc3)O[C@@H]2S1` [compound no. 56, (3aR,5R,6S,7R,7aR)-2-(ethylamino)-5-((S)1-hydroxy-4-phenylbutyl)-5,6,7,7a-tetrahydro-3aH-pyrano[3,2-d][1,3]thiazole-6,7-diol] had an IC50 in test [1] of 100 to 500 nM.

Consider `CCNC1=N[C@@H]2[C@@H](O)[C@H](O)[C@@H](C(=O)CCc3ccccc3)O[C@@H]2S1` [compound no. 59, 1-[(3aR,5S,6S,7R,7aR)-2-(ethylamino)-6,7-dihydroxy-5,6,7,7a-tetrahydro-3aH-pyrano[3,2-d][1,3]thiazol-5-yl]-3-phenylpropan-1-one], for which, in test [1] (setting [3]), the IC50 is greater than 1000 nM.

In turn, `CCNC1=N[C@@H]2[C@@H](O)[C@H](O)[C@@H](C(=O)CCCc3ccccc3)O[C@@H]2S1` [compound no. 60, 1-[(3aR,5S,6S,7R,7aR)-2-(ethylamino)-6,7-dihydroxy-5,6,7,7a-tetrahydro-3aH-pyrano[3,2-d][1,3]thiazol-5-yl]-4-phenylbutan-1-one] gave an IC50 in test [1] greater than 1000 nM.

The molecule `CCNC1=N[C@@H]2[C@@H](O)[C@H](O)[C@@H](CN)O[C@@H]2S1` [compound no. 61, (3aR,5R,6S,7R,7aR)-5-(aminomethyl)-2-(ethylamino)-5,6,7,7a-tetrahydro-3aH-pyrano[3,2-d][1,3]thiazole-6,7-diol] yielded an IC50 in test [1] of 100 to 500 nM.

As for `CCN(C(=O)OCc1ccccc1)C1=N[C@@H]2[C@@H](O)[C@H](O)[C@@H](CO)O[C@@H]2S1` [compound no. 62, benzyl [(3aR,5R,6S,7R,7aR)-6,7-dihydroxy-5-(hydroxymethyl)-5,6,7,7a-tetrahydro-3aH-pyrano[3,2-d][1,3]thiazol-2-yl]ethylcarbamate], in test [1] (20 nM His-Tagged hOGA, 10 μM FL-GlcNAc, pH 6.5, 60 min room temperature, read-out: OGA enzyme inhibition (IC50)), the IC50 lay in the range of 100 to 500 nM.

The molecule `CCN(C(=O)Oc1ccccc1)C1=N[C@@H]2[C@@H](O)[C@H](O)[C@@H](CO)O[C@@H]2S1` [compound no. 63, Phenyl-[(3aR,5R,6S,7R,7aR)-6,7-dihydroxy-5-(hydroxymethyl)-5,6,7,7a-tetrahydro-3aH-pyrano[3,2-d][1,3]thiazol-2-yl]ethylcarbamate] showed a concentration for half-maximal inhibition (IC50) in test [1] of 100 to 500 nM.

Values taken from patent publication US8884023B2, “Pyrano [3,2-D][1,3]thiazole as glycosidase inhibitors” (priority 2011, dated 2014).
